Converted amounts (≈) assume the structure as drawn.
Experiments:
Experiment in all cases: Microdilution MIC assay (NCCLS M7-A)
Format in all cases: cell-based
[1] = system: Escherichia coli ATCC 25922; conditions: strain ATCC 25922
Method: (§1) The antibacterial activity was tested by a microdilution assay according to National Committee for Clinical Laboratory Standards, 1998, Methods for dilution antimicrobial susceptibility tests for bacteria that grow aerobically, Approved standard M7-A, NCCLS, Villanova, Pa.
(§2) The minimal inhibition concentrations (MICs) were determined for the following bacterial strains: The Gram-negative strains Pseudomonas aeruginosa SG 137, ATCC 27853, Escherichia coli ATCC 25922, Klebsiella pneumoniae ATCC 10031, Stenotrophomonas maltophilia GN 12873, Serratia marcescens SG 621 as well as for the Gram-positive strain Staphylococcus aureus SG 511.

[2] = system: Stenotrophomonas maltophilia GN 12873; conditions: strain GN12873
Method: as §1, §2

[3] = system: Pseudomonas aeruginosa SG 137; conditions: strain SG137
Method: as §1, §2

[4] = system: Staphylococcus aureus SG 511; conditions: strain SG511
Method: as §1, §2

[5] = system: Serratia marcescens SG 621; conditions: strain SG621
Method: as §1, §2

[6] = system: Pseudomonas aeruginosa ATCC 27853; conditions: strain ATCC 27853
Method: as §1, §2

[7] = system: Klebsiella pneumoniae ATCC 10031; conditions: strain ATCC10031
Method: as §1, §2

| SMILES | MIC E. coli ATCC 25922 [1] | MIC Stenotroph. maltoph. GN12873 [2] | MIC Pseudomonas aeruginosa SG137 [3] | MIC Staph. aureus SG511 [4] | MIC Serratia marc. SG621 [5] | MIC Pseudomonas aeruginosa ATCC 27853 [6] | MIC Klebsiella pneumoniae ATCC10031 [7] |
| --- | --- | --- | --- | --- | --- | --- | --- |
| CC(=O)Oc1cccc(C(=O)NCCN(CCNC(=O)c2cccc(OC(C)=O)c2OC(C)=O)CCN(CC(=O)NC(C(=O)NC2C(=O)N3C2SC(C)(C)C3C(=O)O)c2ccccc2)C(=O)c2cccc(OC(C)=O)c2OC(C)=O)c1OC(C)=O (stereo not drawn) [Example 13, N-{[6-Bis-2,3-(diacetoxybenzoyl)-2-aminoethyl]-3-(2,3-diacetoxybenzoyl)-3,6-diaza-hexanoyl}-ampicillin] | 0.78 µg/mL (≈ 0.652 µM) | 0.2 µg/mL (≈ 0.167 µM) | 0.1 µg/mL (≈ 0.0836 µM) | 1.56 µg/mL (≈ 1.3 µM) | 0.78 µg/mL (≈ 0.652 µM) | 3.12 µg/mL (≈ 2.61 µM) | 0.1 µg/mL (≈ 0.0836 µM) |
| COC(=O)Oc1cccc(C(=O)NCC(O)CN(CC(=O)NC(C(=O)NC2C(=O)N3C2SC(C)(C)C3C(=O)O)c2ccccc2)C(=O)c2cccc(OC(=O)OC)c2OC(=O)OC)c1OC(=O)OC (stereo not drawn) [Example 14, N-[3,7-Bis-(2,3-dimethoxycarbonyloxybenzoyl)-3,7-diaza-5-hydroxy-heptanoyl]-ampicillin] | 6.25 µg/mL (≈ 6.35 µM) | 0.4 µg/mL (≈ 0.407 µM) | 0.1 µg/mL (≈ 0.102 µM) | 0.4 µg/mL (≈ 0.407 µM) | 1.56 µg/mL (≈ 1.59 µM) | 1.56 µg/mL (≈ 1.59 µM) | 0.2 µg/mL (≈ 0.203 µM) |
| CC(=O)Oc1cccc(C(=O)NCCN(CCNC(=O)c2cccc(OC(C)=O)c2OC(C)=O)CCN(Cc2ccc(C(=O)NC(C(=O)NC3C(=O)N4C3SC(C)(C)C4C(=O)O)c3ccccc3)cc2)C(=O)c2cccc(OC(C)=O)c2OC(C)=O)c1OC(C)=O (stereo not drawn) [Example 15] | 0.78 µg/mL (≈ 0.613 µM) | <0.05 µg/mL | <0.05 µg/mL | 0.78 µg/mL (≈ 0.613 µM) | 0.4 µg/mL (≈ 0.314 µM) | 0.2 µg/mL (≈ 0.157 µM) | 0.1 µg/mL (≈ 0.0786 µM) |
| COC(=O)Oc1cccc(C(=O)N(C)CCCN(Cc2ccc(C(=O)NC(C(=O)NC3C(=O)N4C3SC(C)(C)C4C(=O)O)c3ccccc3)cc2)C(=O)c2cccc(OC(=O)OC)c2OC(=O)OC)c1OC(=O)OC (stereo not drawn) [Example 16, N-{4-[2,6-bis-(2,3-di-methoxycarbonyloxybenzoyl)-2,6-diaza-heptyl]-benzoyl}-ampicillin] | 0.4 µg/mL (≈ 0.378 µM) | <0.05 µg/mL | <0.05 µg/mL | 1.56 µg/mL (≈ 1.47 µM) | 1.56 µg/mL (≈ 1.47 µM) | 0.78 µg/mL (≈ 0.737 µM) | 0.1 µg/mL (≈ 0.0945 µM) |
| CC(=O)Oc1cccc(C(=O)NCCCCN(Cc2ccc(OCC(=O)NC(C(=O)NC3C(=O)N4C3SC(C)(C)C4C(=O)O)c3ccccc3)cc2)C(=O)c2cccc(OC(C)=O)c2OC(C)=O)c1OC(C)=O (stereo not drawn) [Example 17, N-{4-[2,7-Bis-(2,3-diacetoxybenzoyl)-2,7-diaza-heptyl]-phenoxyacetyl}-ampicillin] | 0.78 µg/mL (≈ 0.762 µM) | 0.2 µg/mL (≈ 0.195 µM) | 0.2 µg/mL (≈ 0.195 µM) | 1.56 µg/mL (≈ 1.52 µM) | 6.25 µg/mL (≈ 6.1 µM) | 6.25 µg/mL (≈ 6.1 µM) | <0.05 µg/mL |
| CC(=O)Oc1cccc(C(=O)NCCCCN(Cc2ccccc2C(=O)NC(C(=O)NC2C(=O)N3C2SC(C)(C)C3C(=O)O)c2ccccc2)C(=O)c2cccc(OC(C)=O)c2OC(C)=O)c1OC(C)=O (stereo not drawn) [Example 18, N-{2-[2,7-Bis-(2,3-diacetoxybenzoyl)-2,7-diaza-heptyl]-benzooyl}-ampicillin] | 0.4 µg/mL (≈ 0.402 µM) | <0.05 µg/mL | 0.04 µg/mL (≈ 0.0402 µM) | 6.25 µg/mL (≈ 6.29 µM) | 0.24 µg/mL (≈ 0.241 µM) | 0.2 µg/mL (≈ 0.201 µM) | <0.05 µg/mL |
| CC(=O)Oc1cccc(C(=O)N(C)CCCN(Cc2ccccc2C(=O)N[C@@H](C(=O)N[C@@H]2C(=O)N3[C@@H]2SC(C)(C)[C@@H]3C(=O)O)c2ccccc2)C(=O)c2cccc(OC(C)=O)c2OC(C)=O)c1OC(C)=O [Example 19, N-{2-[2,6-Bis-(2,3-diacetoxybenzoyl)-2,6-diaza-heptyl]-benzoyl}-ampicillin] | 0.78 µg/mL (≈ 0.785 µM) | 0.2 µg/mL (≈ 0.201 µM) | 0.1 µg/mL (≈ 0.101 µM) | 1.56 µg/mL (≈ 1.57 µM) | 0.78 µg/mL (≈ 0.785 µM) | 3.12 µg/mL (≈ 3.14 µM) | 0.1 µg/mL (≈ 0.101 µM) |
| CC(=O)Oc1cccc(C(=O)NCCCN(CCN(CCCN(Cc2ccc(C(=O)N[C@@H](C(=O)N[C@@H]3C(=O)N4[C@@H]3SC(C)(C)[C@@H]4C(=O)O)c3ccccc3)cc2)C(=O)c2cccc(OC(C)=O)c2OC(C)=O)C(=O)c2cccc(OC(C)=O)c2OC(C)=O)C(=O)c2cccc(OC(C)=O)c2OC(C)=O)c1OC(C)=O [Example 20, N-{4-[2,6,9,13-Tetrakis-(2,3-diacetoxybenzoyl)-2,6,9,13-tetraaza-tridecyl]-benzoyl}-ampicillin] | 1.56 µg/mL (≈ 1.03 µM) | 0.2 µg/mL (≈ 0.132 µM) | 0.4 µg/mL (≈ 0.263 µM) | 6.25 µg/mL (≈ 4.11 µM) | 1.56 µg/mL (≈ 1.03 µM) | 1.56 µg/mL (≈ 1.03 µM) | 0.78 µg/mL (≈ 0.513 µM) |
| COc1ccc(CN(CCCCNC(=O)c2cccc(OC(C)=O)c2OC(C)=O)C(=O)c2cccc(OC(C)=O)c2OC(C)=O)c(C(=O)N[C@@H](C(=O)N[C@@H]2C(=O)N3[C@@H]2SC(C)(C)[C@@H]3C(=O)O)c2ccccc2)c1OC [Example 21, N-{6-[2,7-Bis-(2,3-Diacetoxybenzoyl)-2,7-diaza-heptyl]-2,3-dimethoxy-benzoyl}-ampicillin] | 3.12 µg/mL (≈ 2.96 µM) | 0.2 µg/mL (≈ 0.19 µM) | 0.78 µg/mL (≈ 0.74 µM) | 0.2 µg/mL (≈ 0.19 µM) | 1.56 µg/mL (≈ 1.48 µM) | 12.5 µg/mL (≈ 11.9 µM) | 0.4 µg/mL (≈ 0.379 µM) |
| COC(=O)Oc1cccc(C(=O)N(C)CCCN(Cc2ccccc2C(=O)N[C@@H](C(=O)N[C@@H]2C(=O)N3[C@@H]2SC(C)(C)[C@@H]3C(=O)O)c2ccccc2)C(=O)c2cccc(OC(=O)OC)c2OC(=O)OC)c1OC(=O)OC [Example 22, N-{2-[2,6-Bis-(2,3-di-methoxycarbonyloxy-benzoyl)-2,6-diaza-heptyl]-benzoyl}-ampicillin] | 1.56 µg/mL (≈ 1.47 µM) | <0.05 µg/mL | 0.2 µg/mL (≈ 0.189 µM) | 6.25 µg/mL (≈ 5.91 µM) | 0.78 µg/mL (≈ 0.737 µM) | 0.4 µg/mL (≈ 0.378 µM) | 0.4 µg/mL (≈ 0.378 µM) |
| CC(=O)Oc1cccc(C(=O)NCCCN(CCCN(Cc2ccccc2C(=O)N[C@@H](C(=O)N[C@@H]2C(=O)N3[C@@H]2SC(C)(C)[C@@H]3C(=O)O)c2ccccc2)C(=O)c2cccc(OC(C)=O)c2OC(C)=O)C(=O)c2cccc(OC(C)=O)c2OC(C)=O)c1OC(C)=O [Example 23, N-{2-[2,6,10-Tris-(2,3-diacetoxybenzoyl)-2,6,10-triaza-decyl]-benzoyl}-ampicillin] | 6.25 µg/mL (≈ 4.97 µM) | 0.2 µg/mL (≈ 0.159 µM) | 0.78 µg/mL (≈ 0.62 µM) | 12.5 µg/mL (≈ 9.94 µM) | 3.12 µg/mL (≈ 2.48 µM) | 1.56 µg/mL (≈ 1.24 µM) | 0.78 µg/mL (≈ 0.62 µM) |
| CC(=O)Oc1cccc(C(=O)NCCCN(CC(=O)NC(C(=O)NC2C(=O)N3C2SC(C)(C)C3C(=O)O)c2ccccc2)C(=O)c2cccc(OC(C)=O)c2OC(C)=O)c1OC(C)=O (stereo not drawn) [Example 24, N-[3,7-Bis-(2,3-diacetoxybenzoyl)-3,7-diaza-heptanoyl]-ampicillin] | 3.12 µg/mL (≈ 3.45 µM) | 0.2 µg/mL (≈ 0.221 µM) | 3.12 µg/mL (≈ 3.45 µM) | 3.12 µg/mL (≈ 3.45 µM) | 0.78 µg/mL (≈ 0.863 µM) | 3.12 µg/mL (≈ 3.45 µM) | 0.2 µg/mL (≈ 0.221 µM) |
